From patent US20240252652A1, “PROTEINS HAVING UNNATURAL AMINO ACIDS AND METHODS OF USE” (The Regents of the University of California, priority 2021, published 2024)

What was measured:
[1] = tested on: HEK293T cells; test: Cell viability assay (CellTiter-Blue); type: cell-based, human; conditions: 0-1 mM SFY, 24 h or 48 h
Description: Error bars represent s.e.m.; n=3 independent tests.
Cell viability assay. 2×10^4 cells/well of HEK293T cells were seeded in a 96-well plate. On the next day, the media were replaced with fresh DMEM media supplemented with 0, 0.0625, 0.125, 0.25, 0.5, or 1 mM of SFY. The SFY-treated and control cells were cultured for an additional 24-48 h at 37° C. and then analyzed with CellTiter-Blue R Cell Viability Assay following the manufacturer's instructions.

[2] = tested on: Afb-Z complex; test: Cross-linking of MBP-Z24SFY and Afb4A-7X in live E. coli cells; type: cell-based; conditions: 6 h expression, Western blot
Source text: To determine which amino acid residues could react with SFY via proximity-enabled reactivity directly in cells, we coexpressed in E. coli the Z protein and an affibody (Afb) specifically binding it. Based on the crystal structure of Afb-Z complex, we introduced SFY at site 24 of the Z protein and various natural residues at site 7 of the affibody (FIG. 11D), placing the two residues in close proximity upon Afb-Z binding. (Wang et al. J. Am Chem. Soc. 140:4995-4999 (2018)). After expression of Afb(24SFY) and Z(7X) (X=target residue) for 6 h. cells were lysed and analyzed with Western blot under denatured conditions (FIG. 11E). Crosslinking bands corresponding to the adduct of Afb and Z were detected for target residue His. Tyr, and Lys, for both Mm-tRNA^Pyl/MmSFYRS and Ma-tRNA^Pyl/MaSFYRS. We then purified 6×His-tagged Z and Afb proteins from cells and analyzed with SDS-PAGE. Consistently, a protein band corresponding to the cross-linked Z with Afb was clearly observed for Afb-7Lys. Afb-7His, and Afb-7Tyr (FIG. 11E). We further tested if SFY could crosslink with these residues in mammalian cells. […] (Liu et al. J. Am Chem. 141:9458-9462 (2019)). We incorporated SFY at site 103 of GST and mutated residue 107 to various target residues. HEK293T cells expressing these GST mutants were lysed and Western blotted to detect covalent GST dimer formation (FIG. 11G). […]

[3] = tested on: nucleoside monophosphates (AMP, UMP, CMP, GMP); test: In vitro incubations of NMPs and SFY (MS detection of adducts); type: biochemical; conditions: 50 mM SFY, 50 mM NMP, 37° C., 16 hours
Description: In addition, to check if SFY could cross-link all four nucleotides, we incubated 50 mM SFY with 50 mM different nucleoside monophosphates (NMPs: AMP, UMP, CMP, or GMP) at 37° C. for 16 hours.
In vitro incubations of NMPs and SFY. 50 mM SFY (HCl salt) and 50 mM NMP was incubated in DI H2O. 50 mM NaOH was added to neutralize the HCl salt. The mixture was incubated at 37° C. for […]. Then the reaction mixture was diluted for 50 times in H2O/acetonitrile (50/50, v/v, with 0.1% trifluoracetic acid) and subjected to mass spectrum analysis using positive mode. Mass spectrum analysis was performed on SCIEX MDS, 3200 Q TRAP system.
The molecular weight (MW) of addict products between SFY and NMP was calculated following this equation: MW (adduct product)=MW (SFY)+MW (NMP)−MW (HF).

COc1ccc(C[C@H](N)C(=O)O)cc1S(=O)(=O)F [SFY, (S)-1-carboxy-2-(3-(fluorosulfonyl)-4-methoxyphenyl)ethan-1-aminium]
toxicity to HEK293T cells [1]: did not observe obvious toxicity | target residues giving crosslinking bands (adduct of Afb and Z) [2]: detected for target residue His. Tyr, and Lys | cross-linking adducts with NMPs [3]: adducts of SFY with all four NMPs were detected
